Experimental data reported in the supplement of paper PMC9663587.

Experiments:
[1] = compound: CCc1cnn2c(NCc3ccc[n+]([O-])c3)cc(N3CCCC[C@H]3CCO)nc12
[2] = compound: T1, CN(C)C(=O)c1cc2cnc(Nc3ccc(N4CCNCC4)cn3)nc2n1C1CCCC1 [LEE011/Ribociclib]
[3] = compound: COc1cccc2c1C(=O)c1c(O)c3c(c(O)c1C2=O)C[C@@](O)(C(=O)CO)C[C@@H]3O[C@H]1C[C@H](N)[C@H](O)[C@H](C)O1 [Doxorubicin]
[4] = compound: CS(=O)(=O)N1CCN(Cc2cc3nc(-c4cccc5[nH]ncc45)nc(N4CCOCC4)c3s2)CC1 [Pictilisib/GDC0941]
[5] = compound: Cc1cc(Nc2ncc(Cl)c(Nc3ccccc3S(=O)(=O)C(C)C)n2)c(OC(C)C)cc1C1CCNCC1 [Ceritinib/LDK378]
[6] = compound: Cc1nn(C)c(COc2ccc(N3CCN(S(=O)(=O)N(C)C)CC3)cc2)c1-c1cccc2c(CCCOc3cccc4ccccc34)c(C(=O)O)n(CCN3CCOCC3)c12
[7] = compound: C=CC(=O)Nc1ccc(C(=O)Nc2[nH]nc3c2CN(C(=O)N[C@H](CN(C)C)c2ccccc2)C3(C)C)cc1 [YKL-5-124]; experiment: increase in dead-cell fraction, 72 h; higher = more death;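 further: breast cancer cell lines in 384-well plates, stained with Hoechst plus LIVE/DEAD far red dye and imaged, cells above an LDR intensity threshold counted dead, Hoechst-negative corpses included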
[8] = compound: CC(=O)c1c(C)c2cnc(Nc3ccc(N4CCN(CCOCCOCCOCCNC(=O)COc5cccc6c5C(=O)N(C5CCC(=O)NC5=O)C6=O)CC4)cn3)nc2n(C2CCCC2)c1=O [BSJ-03-123]; experiment: as above
[9] = compound: CC(=O)c1c(C)c2cnc(Nc3ccc(N4CCNCC4)cn3)nc2n(C2CCCC2)c1=O; experiment: as above
[10] = compound: CCN1CCN(Cc2ccc(Nc3ncc(F)c(-c4cc(F)c5nc(C)n(C(C)C)c5c4)n3)nc2)CC1; experiment: as above
[11] = compound: CCOc1cc2ncc(C#N)c(Nc3ccc(OCc4ccccn4)c(Cl)c3)c2cc1NC(=O)/C=C/CN(C)C [Neratinib/HKI272]; experiment: as above
[12] = compound: CCc1cnn2c(NCc3ccc[n+]([O-])c3)cc(N3CCCC[C@H]3CCO)nc12; experiment: as above
[13] = compound: T1, LEE011/Ribociclib; experiment: as above
[14] = compound: CN(C)C/C=C/C(=O)Nc1ccc(C(=O)N2CCC[C@@H](Nc3ncc(Cl)c(-c4c[nH]c5ccccc45)n3)C2)cc1 [THZ531]; experiment: as above
[15] = compound: CN(C)C/C=C/C(=O)Nc1ccc(C(=O)Nc2cccc(Nc3ncc(Cl)c(-c4c[nH]c5ccccc45)n3)c2)cc1 [THZ1]; experiment: as above
[16] = compound: CN1CC[C@H](c2c(O)cc(O)c3c(=O)cc(-c4ccccc4Cl)oc23)[C@H](O)C1 [Flavopiridol]; experiment: as above
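Wherever GR50, 72 h is given: breast cancer and non-malignant breast epithelial cell lines, Deep Dye Drop or Dye Drop imaging, nine half-log doses, GR normalized to time-zero plates and DMSO-only controls.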

BT549
GR50, 72 h [1]: 0.0124 µM
GR50, 72 h [2]: > 10 µM
GR50, 72 h [3]: 0.00648 µM
GR50, 72 h [4]: 2.78 µM
GR50, 72 h [5]: 2.96 µM
GR50, 72 h [6]: > 10 µM
increase in dead-cell fraction ([7]; 0.001 µM): 0.0189
increase in dead-cell fraction ([7]; 0.003162 µM): 0.0362
increase in dead-cell fraction ([7]; 0.01 µM): 0.097
increase in dead-cell fraction ([7]; 0.03162 µM): 0.158
increase in dead-cell fraction ([7]; 0.1 µM): 0.169
increase in dead-cell fraction ([7]; 0.3162 µM): 0.169
increase in dead-cell fraction ([7]; 1 µM): 0.196
increase in dead-cell fraction ([7]; 3.162 µM): 0.228
increase in dead-cell fraction ([7]; 10 µM): 0.614
increase in dead-cell fraction ([8]; 0.001 µM): -0.0011
increase in dead-cell fraction ([8]; 0.003162 µM): -0.0008
increase in dead-cell fraction ([8]; 0.01 µM): -0.0008
increase in dead-cell fraction ([8]; 0.03162 µM): 0.0023
increase in dead-cell fraction ([8]; 0.1 µM): 0.0017
increase in dead-cell fraction ([8]; 0.3162 µM): -0.0023
increase in dead-cell fraction ([8]; 1 µM): 0.0009
increase in dead-cell fraction ([8]; 3.162 µM): 0.0085
increase in dead-cell fraction ([8]; 10 µM): 0.184
increase in dead-cell fraction ([9]; 0.0003162 µM): 0.003
increase in dead-cell fraction ([9]; 0.001 µM): 0.0092
increase in dead-cell fraction ([9]; 0.003162 µM): 0.0021
increase in dead-cell fraction ([9]; 0.01 µM): 0.0028
increase in dead-cell fraction ([9]; 0.03162 µM): -0.0008
increase in dead-cell fraction ([9]; 0.1 µM): 0.0025
increase in dead-cell fraction ([9]; 0.3162 µM): -0.0015
increase in dead-cell fraction ([9]; 1 µM): -0.0066
increase in dead-cell fraction ([9]; 3.162 µM): -0.0162
increase in dead-cell fraction ([10]; 0.001 µM): -0.0017
increase in dead-cell fraction ([10]; 0.003162 µM): -0.0033
increase in dead-cell fraction ([10]; 0.01 µM): 0.0079
increase in dead-cell fraction ([10]; 0.03162 µM): -0.0016
increase in dead-cell fraction ([10]; 0.1 µM): 0.0009
increase in dead-cell fraction ([10]; 0.3162 µM): -0.01
increase in dead-cell fraction ([10]; 1 µM): 0.0019
increase in dead-cell fraction ([10]; 3.162 µM): 0.024
increase in dead-cell fraction ([10]; 10 µM): 0.139
increase in dead-cell fraction ([11]; 0.0003162 µM): 0.0052
increase in dead-cell fraction ([11]; 0.001 µM): 0.0037
increase in dead-cell fraction ([11]; 0.003162 µM): 0.0077
increase in dead-cell fraction ([11]; 0.01 µM): -0.001
increase in dead-cell fraction ([11]; 0.03162 µM): 0.0074
increase in dead-cell fraction ([11]; 0.1 µM): -0.0081
increase in dead-cell fraction ([11]; 0.3162 µM): 0.0066
increase in dead-cell fraction ([11]; 1 µM): 0.0035
increase in dead-cell fraction ([11]; 3.162 µM): 0.102
increase in dead-cell fraction ([12]; 0.0001 µM): -0.0017
increase in dead-cell fraction ([12]; 0.0003162 µM): -0.0119
increase in dead-cell fraction ([12]; 0.001 µM): 0.0095
increase in dead-cell fraction ([12]; 0.003162 µM): 0.0067
increase in dead-cell fraction ([12]; 0.01 µM): 0.0717
increase in dead-cell fraction ([12]; 0.03162 µM): 0.309
increase in dead-cell fraction ([12]; 0.1 µM): 0.338
increase in dead-cell fraction ([12]; 0.3162 µM): 0.295
increase in dead-cell fraction ([12]; 1 µM): 0.346
increase in dead-cell fraction ([13]; 0.001 µM): 0.0033
increase in dead-cell fraction ([13]; 0.003162 µM): -0.0034
increase in dead-cell fraction ([13]; 0.01 µM): -0.0015
increase in dead-cell fraction ([13]; 0.03162 µM): -0.0014
increase in dead-cell fraction ([13]; 0.1 µM): -0.0023
increase in dead-cell fraction ([13]; 0.3162 µM): -0.0023
increase in dead-cell fraction ([13]; 1 µM): -0.0003
increase in dead-cell fraction ([13]; 3.162 µM): 0.0011
increase in dead-cell fraction ([13]; 10 µM): -0.0008
increase in dead-cell fraction ([14]; 0.0001 µM): 0
increase in dead-cell fraction ([14]; 0.0003162 µM): 0
increase in dead-cell fraction ([14]; 0.001 µM): 0.0005
increase in dead-cell fraction ([14]; 0.003162 µM): 0.0003
increase in dead-cell fraction ([14]; 0.01 µM): -0.0022
increase in dead-cell fraction ([14]; 0.03162 µM): 0.0026
increase in dead-cell fraction ([14]; 0.1 µM): 0.0062
increase in dead-cell fraction ([14]; 0.3162 µM): 0.0485
increase in dead-cell fraction ([14]; 1 µM): 0.365
increase in dead-cell fraction ([15]; 0.0001 µM): -0.0033
increase in dead-cell fraction ([15]; 0.0003162 µM): -0.0013
increase in dead-cell fraction ([15]; 0.001 µM): -0.0005
increase in dead-cell fraction ([15]; 0.003162 µM): -0.0025
increase in dead-cell fraction ([15]; 0.01 µM): 0.0024
increase in dead-cell fraction ([15]; 0.03162 µM): 0.0096
increase in dead-cell fraction ([15]; 0.1 µM): 0.112
increase in dead-cell fraction ([15]; 0.3162 µM): 0.179
increase in dead-cell fraction ([15]; 1 µM): 0.27
increase in dead-cell fraction ([16]; 0.0001 µM): 0.0048
increase in dead-cell fraction ([16]; 0.0003162 µM): -0.0007
increase in dead-cell fraction ([16]; 0.001 µM): -0.0015
increase in dead-cell fraction ([16]; 0.003162 µM): 0.0036
increase in dead-cell fraction ([16]; 0.01 µM): -0.0014
increase in dead-cell fraction ([16]; 0.03162 µM): 0.0045
increase in dead-cell fraction ([16]; 0.1 µM): 0.0204
increase in dead-cell fraction ([16]; 0.3162 µM): 0.164
increase in dead-cell fraction ([16]; 1 µM): 0.514
